Experimental data as given in PubChem BioAssay AID330 (DTP/NCI, 2004).
Values joined by “and” are separate entries in the source; they are usually repeats but may differ in a detail not shown here. Equal entries are not always repeated. Toxic doses and inconclusive results are not listed. The calls were made as follows: active = survival T/C of 150% or more; inactive = T/C below 125% in these data.

Test system: P388 leukemia ip, CD2F1 mice, survival T/C
Experiment: NCI In Vivo Anticancer Drug Screen. Data for tumor model P388 Leukemia (intraperitoneal) in CD2F1 (CDF1) mice
Details: endpoint: median survival time, higher = longer survival
Outline: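 Mice carrying the transplanted tumor received test compound or vehicle. Survival was recorded in each group, and the value is the treated-group measurement divided by that of the vehicle-treated control group.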

[1] = dose: 25.0 mg/kg/injection, schedule: Q04DX003 (ip), vehicle: saline with Tween-80
[2] = dose: 50.0 mg/kg/injection, schedule: Q04DX003 (ip), vehicle: saline with Tween-80
[3] = dose: 100.0 mg/kg/injection, schedule: Q04DX003 (ip), vehicle: saline with Tween-80
[4] = dose: 200.0 mg/kg/injection, schedule: Q04DX003 (ip), vehicle: saline with Tween-80
[5] = dose: 50.0 mg/kg/injection, schedule: Q01DX009 (ip), vehicle: saline with Tween-80
[6] = dose: 100.0 mg/kg/injection, schedule: Q01DX009 (ip), vehicle: saline with Tween-80
[7] = dose: 200.0 mg/kg/injection, schedule: Q01DX009 (ip), vehicle: saline with Tween-80
[8] = dose: 50.0 mg/kg/injection, schedule: Q01DX005 (ip), vehicle: Klucel (hydroxypropylcellulose) (HPC)
[9] = dose: 100.0 mg/kg/injection, schedule: Q01DX005 (ip), vehicle: Klucel (hydroxypropylcellulose) (HPC)
[10] = dose: 200.0 mg/kg/injection, schedule: Q01DX005 (ip), vehicle: Klucel (hydroxypropylcellulose) (HPC)
[11] = dose: 50.0 mg/kg/injection, schedule: Q01DX005 (ip), vehicle: saline with Tween-80
[12] = dose: 100.0 mg/kg/injection, schedule: Q01DX005 (ip), vehicle: saline with Tween-80
[13] = dose: 200.0 mg/kg/injection, schedule: Q01DX005 (ip), vehicle: saline with Tween-80

Measured: T/C

c1ccc2c(c1)Cc1c(-c3ccncc3)n[nH]c1-2
inactive: [1] 100 % of control | [2] 98 % of control | [3] 94 % of control | [4] 94 % of control

CC(C)C(Br)C(Br)c1ccccc1 (stereo not drawn)
inactive: [5] 100 % of control | [6] 104 % of control | [7] 104 % of control

COC(=O)Nn1c(C)c(C(=O)Nc2ccc(OC)cc2)c(C(=O)OC)c1C
inactive: dose: 60.0 mg/kg/injection, schedule: Q01DX005 (ip), vehicle: saline with Tween-80 97 % of control | dose: 120.0 mg/kg/injection, schedule: Q01DX005 (ip), vehicle: saline with Tween-80 100 % of control | dose: 240.0 mg/kg/injection, schedule: Q01DX005 (ip), vehicle: saline with Tween-80 97 % of control

O=C1C=CC(=O)C2C1CC=C1CCCCC12 (stereo not drawn)
inactive: dose: 7.5 mg/kg/injection, schedule: Q01DX009 (ip), vehicle: saline with Tween-80 106 % of control | dose: 15.0 mg/kg/injection, schedule: Q01DX009 (ip), vehicle: saline with Tween-80 109 % of control | dose: 30.0 mg/kg/injection, schedule: Q01DX009 (ip), vehicle: saline with Tween-80 103 % of control

CCOC(=O)/C(=C(/C)N=Cc1ccccc1[N+](=O)[O-])C(NN=O)c1ccccc1[N+](=O)[O-] (stereo not drawn)
inactive: dose: 25.0 mg/kg/injection, schedule: Q01DX005 (ip), vehicle: Klucel (hydroxypropylcellulose) (HPC) 97 % of control | [8] 93 % of control | [9] 88 % of control and 90 % of control

CC1=C(CO)C(=O)OC(C(C)C2CCC3C4CC5OC56C(O)C(N5CC5)=CC(=O)C6(C)C4CCC23C)C1 (stereo not drawn)
inactive: dose: 5.0 mg/kg/injection, schedule: Q01DX005 (ip), vehicle: Klucel (hydroxypropylcellulose) (HPC) 110 % of control | dose: 10.0 mg/kg/injection, schedule: Q01DX005 (ip), vehicle: Klucel (hydroxypropylcellulose) (HPC) 120 % of control and 91 % of control and 97 % of control | dose: 20.0 mg/kg/injection, schedule: Q01DX005 (ip), vehicle: Klucel (hydroxypropylcellulose) (HPC) 103 % of control and 104 % of control and 123 % of control | dose: 40.0 mg/kg/injection, schedule: Q01DX005 (ip), vehicle: Klucel (hydroxypropylcellulose) (HPC) 103 % of control and 106 % of control and 123 % of control | dose: 80.0 mg/kg/injection, schedule: Q01DX005 (ip), vehicle: Klucel (hydroxypropylcellulose) (HPC) 108 % of control and 109 % of control | dose: 160.0 mg/kg/injection, schedule: Q01DX005 (ip), vehicle: Klucel (hydroxypropylcellulose) (HPC) 105 % of control

COc1ccc(COc2ccc(C(=O)CCN3CCOCC3)cc2)cc1
inactive: [8] 99 % of control | [9] 99 % of control | [10] 99 % of control

COc1ccc(CCNC(=O)C2CCCOC2C(Cl)Cl)cc1OC (stereo not drawn)
inactive: [11] 97 % of control | [12] 101 % of control | [13] 93 % of control

COC(=O)CCC(C)(c1ccc(O)cc1)c1ccc(O)cc1
inactive: [3] 104 % of control | [4] 90 % of control | dose: 400.0 mg/kg/injection, schedule: Q04DX003 (ip), vehicle: saline with Tween-80 90 % of control

OCCN(CCO)C(Cc1ccccc1)c1ccccc1 (stereo not drawn)
inactive: [11] 110 % of control | [12] 105 % of control | [13] 110 % of control

COc1ccc(/C=C/c2nc(Nc3ccc(OC)cc3)c3ccccc3n2)cc1
inactive: dose: 50.0 mg/kg/injection, schedule: Q01DX009 (ip), vehicle: acetone 98 % of control | dose: 100.0 mg/kg/injection, schedule: Q01DX009 (ip), vehicle: acetone 91 % of control | dose: 200.0 mg/kg/injection, schedule: Q01DX009 (ip), vehicle: acetone 99 % of control

[NH-]C(CC(N)=O)C(=O)O.[NH-]C(CC(N)=O)C(=O)O.[Pd+2] (stereo not drawn)
inactive: dose: 6.25 mg/kg/injection, schedule: Q04DX003 (ip), vehicle: saline with Tween-80 92 % of control | dose: 12.5 mg/kg/injection, schedule: Q04DX003 (ip), vehicle: saline with Tween-80 96 % of control | [1] 100 % of control | [2] 98 % of control | [3] 107 % of control | [4] 100 % of control

CC(=O)Nc1c(-c2ccccc2)[nH]c2ccccc12
inactive: dose: 100.0 mg/kg/injection, schedule: Q01DX001 (ip), vehicle: saline with Tween-80 99 % of control

COC(=O)CCCCCCCCCCCCCCCCC(=O)O
inactive: dose: 50.0 mg/kg/injection, schedule: Q01DX009 (ip), vehicle: Klucel (hydroxypropylcellulose) (HPC) 99 % of control | dose: 100.0 mg/kg/injection, schedule: Q01DX009 (ip), vehicle: Klucel (hydroxypropylcellulose) (HPC) 94 % of control | dose: 200.0 mg/kg/injection, schedule: Q01DX009 (ip), vehicle: Klucel (hydroxypropylcellulose) (HPC) 93 % of control

CC(=O)Nc1ccc(C(O)C2=CC(=O)c3ccccc3C2=O)cc1 (stereo not drawn)
inactive: dose: 6.25 mg/kg/injection, schedule: Q01DX009 (ip), vehicle: saline 97 % of control | dose: 12.5 mg/kg/injection, schedule: Q01DX009 (ip), vehicle: saline 97 % of control | dose: 25.0 mg/kg/injection, schedule: Q01DX009 (ip), vehicle: saline 86 % of control | dose: 25.0 mg/kg/injection, schedule: Q01DX009 (ip), vehicle: suspension in saline 103 % of control | dose: 50.0 mg/kg/injection, schedule: Q01DX009 (ip), vehicle: suspension in saline 114 % of control | dose: 100.0 mg/kg/injection, schedule: Q01DX009 (ip), vehicle: suspension in saline 113 % of control

Cc1cc(Cl)cc(C(=O)c2ccccc2)c1OC(N)=O
inactive: [8] 101 % of control | [9] 103 % of control | [10] 106 % of control

Cc1ccnc(Sc2ccc([N+](=O)[O-])cc2[N+](=O)[O-])n1
inactive: dose: 50.0 mg/kg/injection, schedule: Q01DX009 (ip), vehicle: saline 102 % of control | dose: 100.0 mg/kg/injection, schedule: Q01DX009 (ip), vehicle: saline 104 % of control | dose: 200.0 mg/kg/injection, schedule: Q01DX009 (ip), vehicle: saline 100 % of control

NC(CS(=O)(=O)O)C(=O)O (stereo not drawn)
inactive: dose: 100.0 mg/kg/injection, schedule: Q04DX002 (ip), vehicle: saline 105 % of control | dose: 200.0 mg/kg/injection, schedule: Q04DX002 (ip), vehicle: saline 96 % of control

Cc1cccc(C)c1NC1=C(Cl)C(=O)c2ccccc2C1=O
inactive: dose: 3.75 mg/kg/injection, schedule: Q01DX005 (ip), vehicle: saline with Tween-80 103 % of control | dose: 7.5 mg/kg/injection, schedule: Q01DX005 (ip), vehicle: saline with Tween-80 97 % of control | dose: 15.0 mg/kg/injection, schedule: Q01DX005 (ip), vehicle: saline with Tween-80 100 % of control

NNC(=O)CC(N)=O
inactive: dose: 12.5 mg/kg/injection, schedule: Q04DX003 (ip), vehicle: saline 95 % of control | dose: 25.0 mg/kg/injection, schedule: Q04DX003 (ip), vehicle: saline 95 % of control | dose: 50.0 mg/kg/injection, schedule: Q04DX003 (ip), vehicle: saline 96 % of control | dose: 200.0 mg/kg/injection, schedule: Q04DX003 (ip), vehicle: saline 104 % of control | dose: 400.0 mg/kg/injection, schedule: Q04DX003 (ip), vehicle: saline 100 % of control

CO/C=C1\SC(=S)N(c2ccc(NC(C)=O)cc2)C1=O
inactive: [5] 93 % of control | [6] 92 % of control | [7] 96 % of control

COc1cc(/C=C2/Cc3ccccc3C2=O)ccc1O
inactive: dose: 60.0 mg/kg/injection, schedule: Q01DX005 (ip), vehicle: saline 106 % of control | dose: 120.0 mg/kg/injection, schedule: Q01DX005 (ip), vehicle: saline 106 % of control | dose: 240.0 mg/kg/injection, schedule: Q01DX005 (ip), vehicle: saline 96 % of control

COc1cccc2c1C(=O)c1c(O)c3c(c(O)c1C2=O)C[C@@](O)(C(C)=O)C[C@@H]3OC1CC(N2CCC(OC)CC2)C(O)C(C)O1 (stereo partly drawn)
inactive: dose: 0.39 mg/kg/injection, schedule: Q04DX003 (ip), vehicle: water 114 % of control | dose: 0.78 mg/kg/injection, schedule: Q04DX003 (ip), vehicle: water 104 % of control | dose: 1.56 mg/kg/injection, schedule: Q04DX003 (ip), vehicle: water 111 % of control and 114 % of control | dose: 12.5 mg/kg/injection, schedule: Q04DX003 (ip), vehicle: water 118 % of control
active: dose: 6.25 mg/kg/injection, schedule: Q04DX003 (ip), vehicle: water 181 % of control and 217 % of control

COc1ccccc1N=Nc1cccc[c]1[Hg][Cl]
inactive: dose: 9.0 mg/kg/injection, schedule: Q01DX009 (ip), vehicle: saline 107 % of control and 113 % of control and 118 % of control | dose: 18.0 mg/kg/injection, schedule: Q01DX009 (ip), vehicle: saline 114 % of control and 119 % of control | dose: 36.0 mg/kg/injection, schedule: Q01DX009 (ip), vehicle: saline 102 % of control and 113 % of control
